1 compound from patent US20240016763A1, “COENZYME Q10 MICROEMULSION, PREPARATION METHOD THEREFOR AND USE THEREOF” (ZHEJIANG NHU CO., LTD., priority 2021, published 2024) can be followed below.

Structures are written as SMILES.

Data set [1] is described as follows: Test of stability: irradiation at 4500 Lx light intensity, 15 days. It counts as physicochemical. Particulars: 4500 Lx illumination. The text has this: (§1) The coenzyme Q10 microemulsion is quickly poured into a transparency meter barrel, and an inspector observes vertically downward from the barrel mouth of the transparency meter, and slowly releases the microemulsion just to a height of the microemulsion where the type at the bottom can be clearly recognized. The height of the microemulsion is the transparency of the coenzyme Q10 microemulsion, which is generally more than 30 cm to be transparent. The measurement is repeated for 3 times, and the results are averaged.
(§2) Microemulsion samples and coenzyme Q10 raw material are placed in the conditions of irradiation at 4500 Lx light intensity, oxygen filling (25° C.) and 60° C. (incubator) for 15 days, respectively, for experiments. In these experiments, samples are taken on day 0, day 5, day 10 and day 15, respectively, and the content of coenzyme Q10 is determined by HPLC, to investigate the effects of light, oxygen and temperature on the labeled content (%) of coenzyme Q10 and the appearance.
(§3) Refer to the test method of coenzyme Q10 content in Chinese Pharmacopoeia (2015 edition).

A short description of data set [2]: Test of stability: oxygen filling (25° C.), 15 days. It counts as physicochemical.
From the text: as §1, §2, §3

Data set [3] is described as follows: Test of bioavailability: plasma concentration in rats after intragastric administration. Particulars: mean±SD, n=10. It counts as in vivo. Here is the method: Preparation of coenzyme Q10 raw material sample solution: 0.1 g of coenzyme Q10 crystal is accurately weighed and dissolved in 100 mL of diethylene glycol monoethyl ether solution, as a raw material sample.
Microemulsion samples of Examples 1 to 6, coded as Sample 1, Sample 2, Sample 3, Sample 4, Sample 5 and Sample 6, are selected to conduct animal experiments.
Experimental conditions: the temperature of the laboratory feeding environment is 25±3° C., the relative humidity is 55% to 70%, the animals are free to drink water and eat food (deionized water and standard feed) every day, and they are fasted for 12 hours before the experiment but drink water freely.
Experimental animals and grouping: seventy 8-week-old healthy SPF-grade male SD rats, provided by Hubei Experimental Animal Research Center, weighing from 220 g to 230 g.
The rats are operated according to the international experimental guidelines for experimental animals, and every 10 rats fasted for 12 hours are divided into one group by a completely random design, totally seven groups.
Oral administration, sample collection and treatment: the rats are intragastrically administered with the same dose (15 mg/kg: coenzyme Q10 content) of microemulsion samples 1 to 6 and raw material samples, respectively. After administration, plasma is collected at 5 minutes, 15 minutes, 30 minutes, 1 hour, 3 hours, 6 hours, 10 hours and 15 hours, respectively, and put into anticoagulant centrifuge tubes containing heparin, mixed uniformly and then centrifuged to separate the plasma. After the treatment, the plasma concentration is detected by HPLC.
According to the results of the plasma concentration, statistical fitting analysis is carried out by using statistical analysis software, to calculate the plasma concentration. The results is expressed as mean value±standard deviation.

The nature of data set [4]: Test of particle size DV(90) (laser particle size distribution). It counts as physicochemical. Particulars: sample diluted 1:20 with distilled water, 25° C. Here is the method:
The microemulsion sample is diluted with distilled water at a ratio of 1:20 and gently shaken to form a clear microemulsion. Then, the particle size distribution of the emulsion is measured by MASTERSIZER 3000 laser particle size distribution instrument (purchased from Malvern Company, UK) at 25° C.

A short description of data set [5]: Test of stability: 60° C. (incubator), 15 days. It counts as physicochemical.
From the text: as §1, §2, §3

Take `COC1=C(OC)C(=O)C(C/C=C(\C)CC/C=C(\C)CC/C=C(\C)CC/C=C(\C)CC/C=C(\C)CC/C=C(\C)CC/C=C(\C)CC/C=C(\C)CC/C=C(\C)CCC=C(C)C)=C(C)C1=O` [coenzyme Q10 raw material, coenzyme Q10]: the “Labeled content of coenzyme Q10” value stood at 99% in data set [1] (0 day); 95% in data set [1] (5 days); 93% in data set [1] (10 days); 88% in data set [1] (15 days); 99% in data set [2] (0 day); 97% in data set [2] (5 days). For the same compound, the “Labeled content of coenzyme Q10” value in data set [2] (10 days) came out at 95%; in data set [2] (15 days), 90%; in data set [5] (0 day), 99%; in data set [5] (5 days), 97%; in data set [5] (10 days) it was 95%; in data set [5] (15 days) it was 92%. In addition, the average plasma concentration came to 12.1 µg/L in data set [3] (intragastric 15 mg/kg coenzyme Q10, 5 minutes); 21.3 µg/L in data set [3] (intragastric 15 mg/kg coenzyme Q10, 15 minutes); 49.3 µg/L in data set [3] (intragastric 15 mg/kg coenzyme Q10, 30 minutes); 93.0 µg/L in data set [3] (intragastric 15 mg/kg coenzyme Q10, 1 hour); 110.4 µg/L in data set [3] (intragastric 15 mg/kg coenzyme Q10, 3 hours); 83.3 µg/L in data set [3] (intragastric 15 mg/kg coenzyme Q10, 6 hours). Besides, the average plasma concentration in data set [3] (intragastric 15 mg/kg coenzyme Q10, 10 hours) is 37.6 µg/L; in data set [3] (intragastric 15 mg/kg coenzyme Q10, 15 hours), 11.5 µg/L. In addition, in data set [4], the “DV(90)” value turned out to be 75000 nm.
